Literature values as cited in article PMC9627400 (ACS applied materials & interfaces, 2022).

Biological target: IL-6
Settings: read-out: affinity; anti-IL-6 monoclonal antibody; cited from earlier work

In the case of “siltuximab: an FDA-approved anti-IL-6 monoclonal antibody”, the Kd is given as 11.7 nM.
